Experiments:
Assay type in all cases: cell-based
[1] = system: recombinant Escherichia coli KO11; test: Batch fermentation of E. coli KO11 in 1% CSL medium and xylose with nutrient additives: ethanol production and cell growth; conditions: additive 2 g/L unless indicated; for activity at 2000 µg/mL: Escherichia coli
Experimental: (§1) Two types of media were tested: 1% CSL and Luria broth (LB). Each contained 97 g of either xylose or glucose per liter. Luria Broth consists of, per liter: 10 g Difco® Tryptone, 5 g Difco® Yeast Extract and 5 g NaCl. The 1% CSL medium consists of Corn Steep Liquor (1% w/v) plus mineral salts (mineral salts per liter: 1 g of KH2PO4. 0.5 g of K2HPO4, 3.1 g of (NH4)2SO4, 0.4 g of MgCl2·6H2), and 20 mg FeCl3·6H2O).
(§2) Luria Broth was prepared by autoclaving a 2× nutrient stock containing, per liter: 20 g Difco® Tryptone, 10 g Difo® Yeast Extract, and 10 g NaCl. Sugars (xylose or glucose) were autoclaved separately. A 1% CSL medium was prepared as follows: Commercial Corn Steep Liquor (CSL; 50% dry weight/50% water) was diluted with tap water to make a 20X stock containing 100 g dry weight of Corn Steep Liquor/L and was adjusted to pH 7.2 with NaOH (50%). After sterilization by autoclaving, the 20X CSL stock was clarified by centrifugation at 5000×g for 10 minutes. Magnesium was added as a 100× stock solution (40 g/L MgCl2·6H2O). Iron was added as a 1000× stock solution made by dissolving 20 g FeCl3·6H2O in 175 mL of HCl and adjusting to 1 L with sterile water. Nitrogen, sulfur and phosphorus were added using a 20× stock solution containing the following (per liter): 20 g of KH2PO4, 10 g of K2HPO4 and 62 g of (NH4)2SO4. Stock solutions containing minerals were sterilized separately by autoclaving. Final media was prepared by adding 750 mL of water to 1 L bottle containing 100 g of xylose or glucose.
Inocula were grown in same media used for fermentation and were prepared as follows. Three colonies from a fresh plate were used to inoculate seed cultures: 250-mL flask containing 100 mL medium. These cultures were grown with agitation (120 rpm) for 12-16 hours at 35° C. to a final OD550nm of approximately 2.0-2.5. Cells were harvested by centrifugation at 5000×g for 5 minutes, and resuspended in fresh media to an OD550nm of 0.1. The resulting suspension was distributed into 500-mL beakers containing 345 ml each of fermentation medium. Acetaldehyde was added as indicated. Batch fermentations (35° C., 100 rpm) were maintained at pH 6.5 by the automatic addition of 2N KOH. Cell mass, ethanol, and base addition (2N KOH) were recorded during 96 hours of incubation. […]
(§3) Additives (e.g., as listed in Table 1) were dissolved in 5 mL di-H2O. Solutions with pH lower than 5 were neutralized to pH 6.5 with 2N KOH. Nutritional supplements were then filter-sterilized (0.45 μm filter disk) directly into the fermentation vessel containing the culture. The final concentration of all additives in the culture medium was 2 g/L unless otherwise indicated.
(§4) Cell mass was estimated by measuring OD550nm using Baush & Lomb® Spectronic 70 spectrophotometer. […] Ethanol was measured by gas chromatography using a Varian® 3400 CX gas chromatograph with 1-propanol as an internal standard.
(§5) Tables 1, 3, and 5 show time to completion of fermentation, ethanol production, and volumetric productivity of the fermentation for all concentrations of the compound and the control. Maximum ethanol production is shown in grams/liter (g/L). The ethanol yield is shown in grams of ethanol/grams of added sugar. Maximum volumetric productivity is shown in grams ethanol/(liter)(hour). The average productivity is calculated form the start of fermentation to the completion of fermentation is grams ethanol/(liter)hour).
Tables 2, 4, and 6 show the initial growth of the cells (OD taken after the first 24 hours of fermentation) and the maximum cell density (the time which culture reaches the maximum OD value). […]

[2] = system: recombinant Escherichia coli KO11; test: Batch fermentation of E. coli KO11 in 1% CSL medium and glucose with nutrient additives: ethanol production and cell growth; conditions: additive 2 g/L unless indicated; for activity at 2000 µg/mL: Escherichia coli
Experimental: as §1, §2
(§6) Inocula were grown in same media used for fermentation and were prepared as follows. Three colonies from a fresh plate were used to inoculate seed cultures: 250-mL flask containing 100 mL medium. These cultures were grown with agitation (120 rpm) for 12-16 hours at 35° C. to a final OD550nm of approximately 2.0-2.5. Cells were harvested by centrifugation at 5000×g for 5 minutes, and resuspended in fresh media to an OD550nm of 0.1. The resulting suspension was distributed into 500-mL beakers containing 345 ml each of fermentation medium. Acetaldehyde was added as indicated. Batch fermentations (35° C., 100 rpm) were maintained at pH 6.5 by the automatic addition of 2N KOH. Cell mass, ethanol, and base addition (2N KOH) were recorded during 96 hours of incubation.
(§7) Equivalent amounts of distilled water were added instead of the acetaldehyde in control experiments.
as §3, §4, §5
(§8) Tables 2, 4, and 6 show the initial growth of the cells (OD taken after the first 24 hours of fermentation) and the maximum cell density (the time which culture reaches the maximum OD value).
(§9) Acetaldehyde was added to the fermentation medium at five different concentrations and time points. […] Where two additions are indicated, the first volume was added at the start of fermentation and the second was added after 8 hours of fermentation.

[3] = system: recombinant Escherichia coli KO11; test: Batch fermentation of E. coli KO11 in Luria broth and xylose with nutrient additives: ethanol production and cell growth; conditions: LB+xylose
Experimental: as §1, §2, §6, §7, §3, §4, §5, §8, §9

[4] = additive 2 g/L unless indicated

## N[C@@H](CCC(=O)O)C(=O)O [Glutamate, glutamate]
[1]; 1% CSL+xylose
  Ethanol Production Maximum: 43.14 g/L
  Ethanol Production Maximum % Control: 143.43%
  Ethanol yield: 0.444 grams of ethanol/grams of added sugar
  Initial Growth (OD @ 24 h) % Control: 180.49%
  Initial Growth (OD @ 24 h) OD: 3.69 OD
  Maximum Cell Density % Control: 200.16%
  Maximum Cell Density OD: 5.04 OD
  Maximum Cell Density Time: 96 h
  Time to completion: 96 h
  Volumetric Productivity Average: 0.449 grams ethanol/(liter)(hour)
  Volumetric Productivity Average % Control: 143.43%
  Volumetric Productivity Maximum: 0.665 grams ethanol/(liter)(hour)
  Volumetric Productivity Maximum % Control: 180.439%
[2]; 1% CSL+glucose
  Ethanol Production Maximum: 43.39 g/L
  Ethanol Production Maximum % Control: 117.30%
  Ethanol yield: 0.447 grams of ethanol/grams of added sugar
  Initial Growth (OD @ 24 h) % Control: 107.10%
  Initial Growth (OD @ 24 h) OD: 2.86 OD
  Maximum Cell Density % Control: 140.94%
  Maximum Cell Density OD: 3.79 OD
  Maximum Cell Density Time: 72 h
  Time to completion: 72 h
  Volumetric Productivity Average: 0.603 grams ethanol/(liter)(hour)
  Volumetric Productivity Average % Control: 156.40%
  Volumetric Productivity Maximum: 0.763 grams ethanol/(liter)(hour)
  Volumetric Productivity Maximum % Control: 148.52%
[3]; [4]
  Ethanol Production Maximum: 44.67 g/L
  Ethanol Production Maximum % Control: 103.69%
  Ethanol yield: 0.460 grams of ethanol/grams of added sugar
  Initial Growth (OD at 24 h) % Control: 106.21%
  Initial Growth (OD at 24 h) OD: 10.61 OD
  Maximum Cell Density % Control: 96.07%
  Maximum Cell Density OD: 10.61 OD
  Maximum Cell Density Time: 24 h
  Time to completion: 48 h
  Volumetric Productivity Average: 0.931 grams ethanol/(liter)(hour)
  Volumetric Productivity Average % Control: 103.69%
  Volumetric Productivity Maximum: 1.328 grams ethanol/(liter)(hour)
  Volumetric Productivity Maximum % Control: 115.30%

## CC(=O)C(=O)O [Pyruvate, pyruvate]
[1]; 1% CSL+xylose
  Ethanol Production Maximum: 44.42 g/L
  Ethanol yield: 0.457 grams of ethanol/grams of added sugar
  Initial Growth (OD @ 24 h) OD: 4.11 OD
  Maximum Cell Density Time: 96 h
  Volumetric Productivity Average: 0.617 grams ethanol/(liter)(hour)
  Volumetric Productivity Maximum: 0.792 grams ethanol/(liter)(hour)
[1]; 24 h, 1% CSL+xylose, read-out: Initial Growth (OD @ 24 h) % Control
  activity at 2000 µg/mL: 201%
[1]; read-out: Ethanol Production Maximum % Control, 1% CSL+xylose
  activity at 2000 µg/mL: 148%
[1]; read-out: Volumetric Productivity Average % Control, 1% CSL+xylose
  activity at 2000 µg/mL: 197%
[1]; read-out: Volumetric Productivity Maximum % Control, 1% CSL+xylose
  activity at 2000 µg/mL: 215%
[1]; 1% CSL+xylose, read-out: Maximum Cell Density % Control
  activity at 2000 µg/mL: 238%
[2]; 1% CSL+glucose
  Ethanol Production Maximum: 42.35 g/L
  Ethanol yield: 0.436 grams of ethanol/grams of added sugar
  Initial Growth (OD @ 24 h) OD: 3.46 OD
  Maximum Cell Density OD: 3.83 OD
  Volumetric Productivity Average: 0.441 grams ethanol/(liter)(hour)
  Volumetric Productivity Maximum: 0.663 grams ethanol/(liter)(hour)
[2]; 24 h, 1% CSL+glucose, read-out: Initial Growth (OD @ 24 h) % Control
  activity at 2000 µg/mL: 129%
[2]; read-out: Ethanol Production Maximum % Control, 1% CSL+glucose
  activity at 2000 µg/mL: 114%
[2]; read-out: Volumetric Productivity Average % Control, 1% CSL+glucose
  activity at 2000 µg/mL: 114%
[2]; read-out: Volumetric Productivity Maximum % Control, 1% CSL+glucose
  activity at 2000 µg/mL: 129%
[2]; 1% CSL+glucose, read-out: Maximum Cell Density % Control
  activity at 2000 µg/mL: 142%
[3]; 2 g
  Ethanol Production Maximum: 44.35 g/L
  Ethanol Production Maximum % Control: 102.96%
  Ethanol yield: 0.457 grams of ethanol/grams of added sugar
  Initial Growth (OD at 24 h) % Control: 113.09%
  Initial Growth (OD at 24 h) OD: 11.30 OD
  Maximum Cell Density % Control: 102.29%
  Maximum Cell Density OD: 11.30 OD
  Maximum Cell Density Time: 24 h
  Time to completion: 48 h
  Volumetric Productivity Average: 0.924 grams ethanol/(liter)(hour)
  Volumetric Productivity Average % Control: 102.96%
  Volumetric Productivity Maximum: 1.284 grams ethanol/(liter)(hour)
  Volumetric Productivity Maximum % Control: 111.47%
[3]; 4 g
  Ethanol Production Maximum: 45.13 g/L
  Ethanol Production Maximum % Control: 104.76%
  Ethanol yield: 0.465 grams of ethanol/grams of added sugar
  Initial Growth (OD at 24 h) % Control: 114.64%
  Initial Growth (OD at 24 h) OD: 11.45 OD
  Maximum Cell Density % Control: 105.48%
  Maximum Cell Density OD: 11.65 OD
  Maximum Cell Density Time: 48 h
  Time to completion: 48 h
  Volumetric Productivity Average: 0.940 grams ethanol/(liter)(hour)
  Volumetric Productivity Average % Control: 104.76%
  Volumetric Productivity Maximum: 1.166 grams ethanol/(liter)(hour)
  Volumetric Productivity Maximum % Control: 101.27%

## O=C(O)CCC(=O)C(=O)O [a-KG, α-ketoglutarate]
[1]; 1% CSL+xylose
  Ethanol Production Maximum: 42.32 g/L
  Ethanol Production Maximum % Control: 140.70%
  Ethanol yield: 0.436 grams of ethanol/grams of added sugar
  Initial Growth (OD @ 24 h) % Control: 173.77%
  Initial Growth (OD @ 24 h) OD: 3.55 OD
  Time to completion: 72 h
[2]; 1% CSL+glucose
  Ethanol Production Maximum: 40.33 g/L
  Ethanol Production Maximum % Control: 109.03%
  Ethanol yield: 0.415 grams of ethanol/grams of added sugar
  Initial Growth (OD @ 24 h) % Control: 123.05%
  Initial Growth (OD @ 24 h) OD: 3.29 OD
  Time to completion: 72 h
[3]; [4]
  Ethanol Production Maximum: 42.47 g/L
  Ethanol yield: 0.437 grams of ethanol/grams of added sugar
  Initial Growth (OD at 24 h) % Control: 102.79%
  Initial Growth (OD at 24 h) OD: 10.27 OD
  Time to completion: 48 h

Source: patent publication US20020137154A1, “Methods for improving cell growth and alcohol production during fermentation” (priority 2000, published 2002)
